# Results taken from US10258602B2 (Ocera Therapeutics, Inc., priority 2007, dated 2019).
# Like-named read-outs stand apart in the source and are kept apart here.
# Legend:
# [1] = molecular target: human growth hormone secretagogue receptor (hGHS-R1a) (Homo sapiens, UniProt Q92847); assay: Competitive radioligand binding assay (ghrelin receptor), standard method A
# Description: A competitive binding assay at the human growth hormone secretagogue receptor (hGHS-R1a) can be carried out analogously to assays described in the literature. (Bednarek, M. A.; et al. J. Med. Chem. 2000, 43, 4370-4376; Palucki, B. L.; et al. Bioorg. Med. Chem. Lett. […], 11, 1955-1957.) See also U.S. patent application Ser. Nos. 11/149,512 and 11/149,731. Binding activity at the gherlin receptor for representative compounds of the present invention is shown in the Examples below.
# [2] = molecular target: GHS-R1a receptor (human ghrelin receptor) (Homo sapiens, UniProt Q92847); assay: Aequorin functional assay (ghrelin receptor), standard method B; type: cell-based
# Sequence of GHS-R1a receptor (human ghrelin receptor) (Q92847 whole entry): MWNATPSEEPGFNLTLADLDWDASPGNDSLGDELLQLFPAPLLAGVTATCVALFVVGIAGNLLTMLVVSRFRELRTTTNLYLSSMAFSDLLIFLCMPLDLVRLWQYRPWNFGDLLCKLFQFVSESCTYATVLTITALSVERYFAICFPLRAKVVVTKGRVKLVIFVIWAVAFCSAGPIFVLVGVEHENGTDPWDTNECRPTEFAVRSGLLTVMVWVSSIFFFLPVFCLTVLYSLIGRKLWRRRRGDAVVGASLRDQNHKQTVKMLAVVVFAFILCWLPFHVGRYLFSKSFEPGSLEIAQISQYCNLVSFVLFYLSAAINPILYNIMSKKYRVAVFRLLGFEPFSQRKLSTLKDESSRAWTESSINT
# Description: B. Aequorin Functional Assay (Ghrelin Receptor)
# See also U.S. patent application Ser. Nos. 11/149,512 and 11/149,731. (LePoul, E.; et al. J. Biomol. Screen. 2002, 7, 57-65; Bednarek, M. A.; et al. J. Med. Chem. 2000, 43, 4370-4376; Palucki, B. L.; et al. Bioorg. Med. Chem. Lett. 2001, 11, 1955-1957.) Functional activity at the gherlin receptor for representative compounds of the present invention is presented in the Examples.
# [3] = Pharmacokinetic analysis (oral bioavailability, elimination half-life) in the rat; type: in vivo; conditions: oral administration, 8 mg/kg dose, HPLC-MS
# Description: D. Pharmacokinetic Analysis of Representative Compounds of the Invention
# The pharmacokinetic behavior of compound of the invention can be ascertained by methods well known to those skilled in the art. (Wilkinson, G. R. “Pharmacokinetics: The Dynamics of Drug Absorption, Distribution, and Elimination” in Goodman & Gilman's The Pharmacological Basis of Therapeutics, Tenth Edition, Hardman, J. G.; Limbird, L. E., Eds., McGraw Hill, Columbus, Ohio, 2001, Chapter 1.) The following method was used to investigate the pharmacokinetic parameters (elimination half-life, total plasma clearance, etc.) for intravenous, subcutaneous and oral administration of compounds of the present invention. See also U.S. patent application Ser. No. 11/149,512 and Ser. No. 11/149,731 and Intl. Pat. Appl. No. PCT/US2007/017905.
# The table below presents oral bioavailability and elimination half-life data in the rat for representative compounds of the present invention. The parameters were determined by HPLC-MS after oral administration of an 8 mg/kg dose of the compound, except for compound 822 where a 2 mg/kg dose was used.
# fasted rats = assay: Gastric emptying in fasted rat model, standard method E; type: in vivo; conditions: average where repeated
# Protocol: E. Gastric Emptying in Fasted Rat Model
# To examine the effects of compounds of the invention in a model for gastroparesis, compounds were evaluated for possible effects on gastric emptying in fasted rats. This model is used to determine the potential of compounds of the invention to promote motility in fasted rats.
# • 1. Overnight-fasted rats (male, Wistar, 200 g, n=5/group) were given a meal (2 mL) of methylcellulose (2%) by intragastric gavage. The meal was labeled with phenol red (0.05%). • 2. Test articles (dosed at various concentrations, typically 1, 3, 10, 30 mg/kg), vehicle and positive control (metoclopramide, a 5-HT ligand and prokinetic agent currently prescribed for the treatment of GI disorders, including gastroparesis) were administered by oral gavage immediately after the meal (time=0). • 3. […] Total phenol red remaining in the stomach was quantified by a colorimetric method at 560 nm. • 5. A 30% or more increase in gastric emptying (as compared to the vehicle control) was considered significant. • 6. One-way ANOVA, Dunnet's post-hoc statistical test was applied Results
# The effects of representative compounds of the invention in the rat gastric emptying model described in standard method E are provided in the following table. In cases where an experiment was conducted multiple times, the average of the individual results is presented.
# human plasma = assay: Plasma protein binding, human plasma (equilibrium dialysis); type: in vitro ADME; conditions: test concentration 3 μg/mL
# Description: J. Plasma Protein Binding
# The pharmacokinetic and pharmacodynamic properties of drugs are largely a function of the reversible binding of drugs to plasma or serum proteins such as albumin and α1-acid glycoprotein. In general, only unbound drug is available for diffusion or transport across cell membranes, and for interaction at the pharmacological target. On the other hand, drugs with low plasma protein binding generally have large volumes of distribution and rapid clearance since only unbound drug is available for glomerular filtration and, in some cases, hepatic clearance. Thus, the extent of plasma protein binding can influence efficacy, distribution and elimination. The ideal range for plasma protein binding is in the range of 87-98% for most drug products.
# Protein binding studies were performed using human plasma. Briefly, 96-well microplates were used to incubate various concentrations of the test article for 60 min at 37° C. Bound and unbound fractions are separated by equilibrium dialysis, where the concentration remaining in the unbound fraction is quantified by LC-MS or LC-MS-MS analysis. […].
# The table below presents protein binding data for representative compounds of the present invention in both human and rat plasma.
# rat plasma = assay: Plasma protein binding, rat plasma; type: in vitro ADME; conditions: test concentration 3 μg/mL
# [4] = binding activity at the human ghrelin receptor, standard method A
# [5] = functional activity at the human ghrelin receptor, standard method B (Aequorin)
# Sequence of human growth hormone secretagogue receptor (hGHS-R1a) (Q92847 whole entry): as above
"Ki [1, 4] [nM]","EC50 [2, 5] [nM]","Elimination Half-life (t1/2, rat, min) [3] [min]","Oral Bioavailability (rat, % F) [3] [% F]",SMILES,other results
≤ 100,≤ 400,–,–,C[C@@H]1CN[C@@H](C2CC2)C(=O)N(C)[C@H](C)C(=O)N[C@H]([C@H](C)c2ccc(F)cc2)C(=O)NCCCc2ccccc2O1 [Compound 1018],–
≤ 100,–,223,22,C[C@@H]1CN[C@@H](C2CC2)C(=O)N(C)[C@H](C)C(=O)N[C@H](Cc2ccc(F)cc2)C(=O)NCCCc2ccc(F)cc2O1 [Compound 854],–
≤ 100,≤ 100,–,–,C[C@@H]1CNC(=O)[C@@H](Cc2ccc(F)cc2)NC(=O)[C@@H](C)N(C)C(=O)[C@H](C2CC2)NC[C@@H](C)Oc2ccccc2C1 [Compound 1033],–
–,–,–,–,CCN(CC)CCNC(=O)c1cc(Cl)c(N)cc1OC [metoclopramide],Percent Increase in Gastric Emptying After Oral Administration (fasted rats; dose 30 mg/kg): 35%
≤ 100,≤ 400,–,–,CC[C@H](C)[C@@H]1NC[C@@H](C)Oc2ccccc2CCCNC(=O)[C@@H](Cc2cccnc2)NC(=O)[C@@H](C)N(C)C1=O [Compound 976],–
–,–,–,15,C[C@@H]1CN[C@@H](C2CC2)C(=O)N(C)[C@H](C)C(=O)N[C@H](Cc2ccc(Cl)cc2)C(=O)NCCCc2ccc(F)cc2O1 [Compound 877],"Ki [1]: ≤ 100 nM; half-life ([3]; plasma, read-out: Elimination Half-life (t1/2, rat, min)): 255 min; EC50 [2]: ≤ 50 nM"
≤ 1,≤ 50,–,–,C[C@@H]1C(=O)N[C@H](Cc2ccc(F)cc2)C(=O)NCCCc2cccc3c2O[C@H](CC3)CN[C@@H](C2CC2)C(=O)N1C [Compound 1009],–
≤ 100,–,34,11,CC(C)C[C@H]1NC(=O)[C@@H](C)N(C)C(=O)[C@H](C2CC2)NC[C@@H](C)Oc2c(F)cccc2CCCNC1=O [Compound 979],–
≤ 100,≤ 100,–,–,CC(C)[C@@H](O)[C@H]1NC(=O)[C@@H](C)N(C)C(=O)[C@H](C2CC2)NC[C@@H](C)Oc2ccccc2CCCNC1=O [Compound 1058],–
≤ 10,–,268,22,C[C@@H]1CN[C@@H](C2CC2)C(=O)N(C)[C@H](C)C(=O)N[C@H](Cc2ccc(F)cc2)C(=O)N[C@@H](C)CCc2ccccc2O1 [Compound 1011],–
≤ 100,≤ 400,103,26,CC(C)C[C@H]1NC(=O)[C@@H](C)N(C)C(=O)[C@H](C2CC2)NC[C@@H](C)Oc2ccccc2CCCNC1=O [Compound 968],–
–,–,122,9,CC(C)C[C@H]1NC(=O)[C@@H](C)N(C)C(=O)[C@H](C2CC2)NC[C@@H](C)Oc2cccnc2CCCNC1=O [Compound 999],–
≤ 100,–,42,11,C[C@@H]1CN[C@@H](C2CC2)C(=O)N(C)[C@H](C)C(=O)N[C@H](Cc2ccc(F)cc2)C(=O)NCCCc2cccc(F)c2O1 [Compound 935],–
≤ 100,–,46,6,C[C@@H]1CN[C@@H](C2CC2)C(=O)N(C)[C@H](C)C(=O)N[C@H](Cc2ccc(F)cc2)C(=O)NCCCc2ncccc2O1 [Compound 1027],–
≤ 10,–,77,22,C[C@@H]1CN[C@@H](C2CC2)C(=O)N(C)[C@H](C)C(=O)N[C@H](Cc2ccc(Cl)cc2)C(=O)NCCCc2ccccc2O1 [Compound 862],–
≤ 100,≤ 100,–,–,CC1CNC(C2CC2)C(=O)N(C)C(C)C(=O)NC(CC(C)(C)C)C(=O)NCCCc2ccccc2O1 (stereo not drawn) [Compound 1043],–
≤ 100,≤ 100,23,4,CC(C)C[C@H]1NC(=O)[C@@H](C)N(C)C(=O)[C@H](C2CCCCC2)NC[C@@H](C)Oc2cccnc2CCCNC1=O [Compound 1061],–
≤ 1,≤ 50,–,–,C[C@@H]1CN[C@@H](C2CCCCC2)C(=O)N(C)[C@H](C)C(=O)N[C@H](Cc2ccc(F)cc2)C(=O)NCCCc2ccccc2O1 [Compound 982],–
≤ 10,–,31,4,CC(C)C[C@H]1NC(=O)[C@@H](C)N(C)C(=O)[C@H](C2CC2)NCCOc2c(F)cccc2CCCNC1=O [Compound 813],Percent Increase in Gastric Emptying After Oral Administration (fasted rats; dose 3 mg/kg): 11%
≤ 100,–,128,32,C[C@@H]1CN[C@@H](C2CC2)C(=O)N(C)[C@H](C)C(=O)N[C@H](Cc2ccc(O)cc2)C(=O)N(C)CCCc2ccccc2O1 [Compound 1069],–
≤ 1,–,120,15,CC1CNC(C2CC2)C(=O)N(C)C(C)C(=O)NC(CC2CCCCC2)C(=O)NCCCC2CCCCC2O1 (mixture of isomers) [Compound 831],Percent Increase in Gastric Emptying After Oral Administration (fasted rats; dose 3 mg/kg): 32%
≤ 100,> 400,–,–,C[C@@H]1CN[C@@H](C2CC2)C(=O)N(C)[C@H](C)C(=O)N[C@H](Cc2cccnc2)C(=O)NCCCc2ccccc2O1 [Compound 975],–

SMILES,"Ki [1, 4] [nM]","EC50 [2, 5] [nM]","Elimination Half-life (t1/2, rat, min) [3] [min]","Oral Bioavailability (rat, % F) [3] [% F]",other results
C[C@@H]1CN[C@@H](C2CC2)C(=O)N(C)[C@H](C)C(=O)N[C@H](Cc2ccc(O)cc2)C(=O)NCCCc2ccccc2O1 [Compound 989],≤ 100,–,138,7,–
C[C@@H]1CN[C@@H](C2CCCCC2)C(=O)N(C)[C@H](C)C(=O)N[C@H](Cc2ccc(O)cc2)C(=O)NCCCc2ncccc2O1 [Compound 1062],≤ 10,≤ 50,–,–,–
CC1CNC(C2CCCCC2)C(=O)N(C)C(C)C(=O)NC(Cc2ccc(O)cc2)C(=O)NCCCC2CCCCC2O1 (mixture of isomers) [Compound 829],≤ 1,–,45,8,Percent Increase in Gastric Emptying After Oral Administration (fasted rats; dose 3 mg/kg): 28%; Human Plasma Protein Binding (%) (human plasma): 91.6%
C[C@@H]1C(=O)N[C@H](Cc2ccc(O)cc2)C(=O)NCCCc2ccc(F)c(F)c2OCCN[C@@H](C2CC2)C(=O)N1C [Compound 818],≤ 10,–,–,–,Percent Increase in Gastric Emptying After Oral Administration (fasted rats; dose 3 mg/kg): 11%
CC1C(=O)NC(Cc2ccc(O)cc2)C(=O)NCCCC2CCCCC2OCCNC(C2CC2)C(=O)N1C (stereo not drawn) [Compound 1118],≤ 10,–,–,–,Rat Plasma Protein Binding (%) (rat plasma): 95.5%; Human Plasma Protein Binding (%) (human plasma): 92.8%
